Test results from patent US6800622B1, “Pyrene-linked pyrrolo[2,1-c][1,4]benzodiazepine hybrids useful as anti-cancer agents” (Council of Scientific and Industrial Research, priority 2003, dated 2004).

Key:
sixty human tumour cells = assay: NCI in vitro cytotoxicity, SRB assay, mean graph midpoints; format: cell-based; settings: 48 h continuous drug exposure, human tumour cell lines
Experimental: (§1) In vitro biological activity studies were carried out at National Cancer Institute (USA).
(§2) Compounds Ve and Vg were evaluated the primary anti-cancer activity (Table 1) and further Ve have been evaluated in vitro against sixty human tumour cells derived from nine cancer types (leukemia, non-small-cell lung, colon, CNS, melanoma, ovarian, prostate, and breast cancer). For each compound, dose response curves for each cell line were measured at a minimum of five concentrations at 10 fold dilutions. A protocol of 48 h continuous drug exposure was used and a sulforhodamine B (SRB) protein assay was used to estimate cell viability or growth. The concentration causing 50% cell growth inhibition (GI50), total cell growth inhibition (TGI 0% growth) and 50% cell death (LC50, −50% growth) compared with the control was calculated.

SF-268 (CNS) = assay: In vitro one dose primary anticancer assay (NCI); format: cell-based, human; settings: one dose at 10^−4 molar concentration
Experimental: as §1, §2

NCI-H460 (Lung) = assay: In vitro one dose primary anticancer assay (NCI); format: cell-based, human; settings: one dose at 10^−4 molar concentration
Experimental: as §1, §2

MCF7 (Breast) = assay: In vitro one dose primary anticancer assay (NCI); format: cell-based, human; settings: one dose at 10^−4 molar concentration
Experimental: as §1, §2

Structure (SMILES) | Log10 TGI mean graph midpoint (MG_MID) (sixty human tumour cells) | Growth percentages (CNS) SF-268 (SF-268 (CNS)) [%] | Growth percentages (Lung) NCI-H460 (NCI-H460 (Lung)) [%] | Growth percentages (Breast) MCF7 (MCF7 (Breast)) [%]
COc1cc2c(cc1OCCCC(=O)Nc1ccc3ccc4cccc5ccc1c3c45)N=C[C@@H]1CCCN1C2=O [Ve, 7-Methoxy-8-[N-(1″-pyrenyl)-propane-3′-carboxamide]-oxy-(11aS)-1,2,3,11a tetra-hydro-5H-pyrrolo[2,1-c][1,4]benzodiazepin-5-one] | −6.89 | 70 | 11 | 31
COc1cc2c(cc1OCCCCC(=O)Nc1ccc3ccc4cccc5ccc1c3c45)N=C[C@@H]1CCCN1C2=O [Vg, 7-Methoxy-8-[N-(1″-pyrenyl)-butane-4′-carboxamide]-oxy-(11aS)-1,2,3,11a-tetra-hydro-5H-pyrrolo[2,1-c][1,4]benzodiazepin-5-one] | – | 131 | 106 | 72
